Data on 3 compounds can be found in PMC11022737, “Targeting GRP75 with a Chlorpromazine Derivative Inhibits Endometrial Cancer Progression Through GRP75–IP3R‐Ca^2+‐AMPK Axis” (Advanced Science, 2024).

Usually IC50 stands for the concentration needed to halve the response being measured. In general, fraction unbound refers to free concentration divided by total concentration. The term Cmax denotes the maximum level reached in the sampled fluid or tissue. A word on the Tmax: it is the time from dosing to the highest level. Usually half-life stands for how long it takes for the measured level to halve.

The subject of data set [1] is endometrial cancer organoid (ECO). As to the kind of experiment: anti-proliferation in endometrial cancer organoid (ECO) model. As to conditions: Homo sapiens, n = 3, mean ± SD. It counts as cell-based. The method, then: ECO cultures were established as described previously.^[ [50] ^] Biopsies were cut into small pieces and extensively rinsed in phosphate‐buffered saline (PBS; HyClone, SH30256.01) containing 2% penicillin–streptomycin solution (Thermo Fisher Scientific, 10 010 023). Tissues were incubated in TrypLE (1x; Thermo Fisher Scientific, 12 604 013) supplemented with rock inhibitor for 20 min and then mechanically sheared to obtain a cell suspension. Digestion was stopped by dilution with equal amounts of DMEM/F12 and centrifuged at 1300 rpm for 5 min at 4 °C. The pellet was resuspended in Matrigel (Corning, 356 231, Corning, NY, USA), and 30 µL droplets were deposited in pre‐warmed 24‐well plates. ECOs were cultured as described previously.^[ [51] ^] For passages (performed every 10–20 d), organoids were recovered via liquefaction of the Matrigel drops with ice‐cold DMEM/F12 to ensure maximum organoid collection. Subsequently, ECOs were dissociated by repeated pipetting using TrypLE (in DMEM/F12 containing rock inhibitor), and the mixture was centrifuged at 1300 rpm. […]
EC cells were seeded into 96‐well plates at a concentration of 8 × 10^3 cells well^−1 in a 100 µL volume and cultured overnight. […] Absorbance at 450 nm was measured using a microplate reader (BioTek Synergy H1, Agilent Technologies, Santa Clara, CA, USA).

Data set [2] in a line: plasma protein binding using equilibrium dialysis. The format is in vitro ADME. A general note: In equilibrium dialysis free small molecules cross a membrane that holds back macromolecules.
Excerpt: Plasma protein binding using equilibrium dialysis: A 96-well equilibrium dialysis device and HTD 96 a/b regenerated cellulose membrane strips with a molecular mass cutoff of 12–14 kDa were obtained from HTDialysis LLC (Gales Ferry, CT). The dialysis device was assembled following the manufacturer's instructions.
The nature of data set [3]: pharmacokinetic assay in SD rats (PO, IP, IV). The note with it: male, rat, plasma. It counts as in vivo. The method, then:
Three male SD rats (208–259 g, 6–8 weeks) per group were purchased from JH Laboratory Animal Co. LTD. All rats were raised under controlled temperature and humidity conditions and had free access to food and water. […] Each rat was injected with a combination solution at doses of 2, 10, and 5 mg kg^−1 for IV, PO, and IP, respectively. Blood samples collected in anticoagulant (K2EDTA)‐containing tubes at 0.25, 0.5, 1, 2, 4, 8, and 24 h after injection were centrifuged at 2000 × g at 4 °C for 5 min to obtain plasma. LC‐MS/MS analysis of samples was carried out using an ACQUITY UPLC HSS T3 1.8 µm column. The mobile phase was a mixture of phase A (0.1% formic acid in water) and phase B (0.1% formic acid in acetonitrile), which ran in gradient mode at a flow rate of 0.6 mL min^−1 at 60 °C. Mass spectra were obtained on an API6500 triple quadrupole equipped with an ESI source. Glipizide was used as an internal standard. The plasma concentrations of the compounds were analyzed, and the pharmacokinetic parameters were calculated via WinNonlin.

Data set [4] concerns ISK cells xenograft tumors. The data set is described as follows: ISK tumor xenograft in nude mice. It counts as in vivo, BALB/c nude mice. An excerpt:
All animal experiments were approved by the Committee on the Ethics of Animal Experiments of Shanghai Jiao Tong University, China (GKLW 2018–40). Female BALB/c nude mice (at least 5 weeks old) were procured from a commercial supplier (JieSiJie, Shanghai, China) through the Department of Laboratory Animal Science at Shanghai Jiaotong University School of Medicine. Mice were maintained under standard conditions and cared for according to the institutional guidelines for animal care. EC cells resuspended in PBS were mixed with Matrigel (BD Biosciences) in equal volume and then subcutaneously injected into the armpits of the nude mice. […] The dose of the compound injected into the mice was slightly adjusted following the methodology described in the previous study.^[ [7] ^] Every 2 d, the length (L) and width (W) of each tumor were measured twice using an external Vernier caliper for automatic reading, where the larger of the two measurements was defined as L and the smaller as W. The tumor volume was calculated using Equation 1, as follows: (1) V=0.52×L×W^2
HSP‐70 ELISA kits were purchased from YuBo Biology. […] Equal amounts of diluted protein supernatant were used, and the assay was conducted according to the manufacturer's instructions. The obtained absorbance values for protein levels were then transferred to in‐house data analysis software developed using the Windows Microsoft Excel platform to calculate the standard deviations for each group, and the average absorbance for each group was compared to the standardized controls. Each test group for each of the proteins of interest consisted of eight replicates. Assay‐specific controls were run with each plate to ensure optimal accuracy of the results.

Another data set has as its system EC cells (ISK). As to the kind of experiment: MAM integrity and mitochondrial Ca2+ (TEM, confocal imaging) in EC cells. The format is cell-based, human. The method, then: EC cells were fixed with 2.5% glutaraldehyde in sodium cacodylate buffer (0.1 mol L^−1, pH 7.2) at 4 °C overnight and post‐fixed for 1 h in 1% osmium tetroxide. Samples were stained for 1 h with 1% uranyl acetate in water before dehydration and embedding in the TAAB resin. Images were obtained using a transmission electron microscope.
Co‐localization analysis of the ER and mitochondria was conducted as previously described.^[ [64], [65] ^] EC cells grown on glass slides were loaded with Mito‐Tracker Red (0.3 µmol L^−1) and ER‐Tracker Green (1 µmol L^−1) at 37 °C for 30 min. Images were captured using a confocal microscope equipped with a 100× oil immersion objective (excitation at 488 and 594 nm, emission at 505–530 and >560 nm, respectively). Co‐localization of the ER and mitochondria was quantified as Manders’ co‐localization coefficient (MCC) using ImageJ software with a JACoP plugin. MCCs were calculated according to the fraction of mitochondrial pixels in contact with the ER (with a higher value representing more co‐localization). The co‐localization of Rhod‐2 (red fluorescent signal, 4 µmol L^−1) with Mito‐Tracker Green (0.3 µmol L^−1) in the live cells was performed as described above.

The subject of data set [5] is ISK and KLE cells. As to the kind of experiment: ATP production and α-KGDH activity in EC cells. As to conditions: 10 µmol L−1. It counts as cell-based, human. The method, then:
The intracellular ATP levels were then checked using an enhanced ATP kit (Beyotime Biotechnology, Jiangsu, China), in accordance with the manufacturer's instructions. The entire cell population, including any floating cells, was collected, lysed, and boiled to release the ATP for the assay, and the results were compared with those from the DMSO group (%).
Intracellular α‐KGDH activity levels were measured using an α‐KGDH activity assay kit (Solarbio, Beijing, China) according to the manufacturer's instructions. Briefly, the entire cell population, including any floating cells, was collected, milled, and the absorbance measured. The α‐KGDH activity was then determined using Equation 2 as follows: (2) α−KGDH=U/10^4cell=4.962×ΔAdetermination−ΔAblank

Data set [6] deals with ISK and KLE cells. The data set is described as follows: Seahorse glycolytic rate assay (ECAR). It counts as cell-based, human. The note with it: 10 µM. The method, then: The ECAR and OCR were measured using the Seahorse XF Glycolysis Stress Test Kit or Seahorse XF Cell Mito Stress Test Kit on the Seahorse XF 96 Extracellular Flux Analyzer (Seahorse Bioscience, North Billerica, MA, USA), according to the manufacturer's introductions. […] Glucose, oligomycin, and 2‐deoxy‐glucose were used to determine the ECAR values, whereas oligomycin, carbonyl cyanide‐p‐trifluoromethoxyphenylhydrazone, and rotenone were used to measure the OCR.

Data set [7] has as its system AMPK signaling in ISK and KLE cells. The data set is described as follows: Western blotting of p-AMPK and BIM. The format is cell-based, human. An excerpt: EC cells were lysed in RIPA buffer (Epizyme, PC102, Ipsen Biopharmaceuticals, Cambridge, MA, USA) supplemented with a protease inhibitor cocktail. Samples were then quantified using a BCA kit (Epizyme, ZJ101), resolved by SDS‐PAGE, and blotted with primary antibodies and corresponding horseradish peroxidase‐conjugated secondary antibodies. The primary antibodies used included anti‐AMPK (1:1000 dilution), anti‐p‐AMPK (1:1000 dilution), anti‐BIM (1:1000 dilution), and anti‐GRP75 (1:1000 dilution) from Cell Signaling Technology (Beverly, MA, USA) and anti‐GAPDH (1:1500 dilution) from Yeason.
(Immunoblotting shows a protein as a band on a membrane.)

Details of data set [8]: method as in PMID 35868106. The note with it: cited from earlier work.
Another data set has as its target T1, GRP75 (Homo sapiens, UniProt P38646).
T1 construct: purchased Zoonbio Biotechnology Co., Ltd. (Nanjing, China); host or cells: E. coli
The data set is described as follows: microscale thermophoresis (MST) binding assay. As to conditions: His-tagged recombinant GRP75 50 nmol L−1, n = 3; read-out: K d, binding to GRP75 (MST). The method, then:
Purified GRP75 protein was obtained by Zoonbio Biotechnology Co., Ltd. (Nanjing, China). Recombinant His‐tagged GRP75 protein was labeled with RED‐tris‐NTA second generation dye solution (MO‐L018, NanoTemper Technologies), according to the manufacturer's instructions. […] All samples were diluted in 1× PBST and contained the same amount of DMSO. The K d was determined in MO. Control using the K d fit.
For orientation: In MST a laser heats a spot of the sample, and binding alters the fluorescence response.

A further data set in a line: water solubility. The format is physicochemical.
Setting [9] is: IP 5 mg kg−1, read-out: AUC 0–24 h.
Where [10] appears, read: IP 5 mg kg−1, read-out: AUC 24 h−∞.
Where [11] appears, read: IV 2 mg kg−1, read-out: AUC 0–24 h.
The mark [12] stands for this setting: IV 2 mg kg−1, read-out: AUC 24 h−∞.
[13] abbreviates: PO 10 mg kg−1, read-out: AUC 0–24 h.
[14] abbreviates: PO 10 mg kg−1, read-out: F (oral bioavailability).

Read-outs that look alike come from different tables or passages of the source.

T1 sequence (P38646 47-679): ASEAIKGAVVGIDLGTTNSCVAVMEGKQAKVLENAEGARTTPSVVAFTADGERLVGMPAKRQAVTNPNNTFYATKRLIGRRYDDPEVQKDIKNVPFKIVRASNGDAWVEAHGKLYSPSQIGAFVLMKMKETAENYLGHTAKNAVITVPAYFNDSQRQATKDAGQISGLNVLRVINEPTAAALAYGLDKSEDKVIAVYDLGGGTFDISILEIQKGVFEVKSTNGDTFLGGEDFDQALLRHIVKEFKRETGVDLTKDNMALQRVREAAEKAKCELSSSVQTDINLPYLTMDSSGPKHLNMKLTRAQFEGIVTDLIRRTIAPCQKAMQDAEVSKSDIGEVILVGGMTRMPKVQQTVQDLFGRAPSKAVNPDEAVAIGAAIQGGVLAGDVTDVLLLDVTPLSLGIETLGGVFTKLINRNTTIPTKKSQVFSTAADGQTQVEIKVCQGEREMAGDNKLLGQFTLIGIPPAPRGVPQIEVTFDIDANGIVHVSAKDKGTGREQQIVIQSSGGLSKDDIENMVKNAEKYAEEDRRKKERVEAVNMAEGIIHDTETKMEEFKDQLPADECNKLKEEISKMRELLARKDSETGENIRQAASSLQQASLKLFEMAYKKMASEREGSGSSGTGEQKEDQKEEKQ

As for `CN(C)CCCN1c2ccccc2Sc2ccc(Cl)cc21` [CPZ, chlorpromazine], the half-inhibitory concentration (IC50) in data set [1] was determined as 58.2 ± 7.62 µM. Further, in data set [2], the “% Bound (plasma protein binding rate)” value came to 98.44% and the fraction unbound worked out at 0.0156.
As to `CN1CCN(CCCCCN2c3cc(Cl)ccc3Sc3cccnc32)CC1` [JX57], in data set [2], the “%Unbound” value is on record as 0.84%. The figures for the Cmax in data set [3] (IP 5 mg kg−1) and in data set [3] (PO 10 mg kg−1) were 3.04 ± 1.12 ng/mL and 11.3 ± 4.57 ng/mL, respectively. Further, the Tmax was 0.33 ± 0.14 h in data set [3] (IP 5 mg kg−1) and 0.41 ± 0.14 h in data set [3] (PO 10 mg kg−1). In addition, the half-life in [3] (IP 5 mg kg−1) is 184 ± 61.8 min; in data set [3] (IV 2 mg kg−1) it was 163 ± 54 min; in [3] (PO 10 mg kg−1) it was 242 ± 52.8 min. Besides, the AUC(0-t) in data set [3] (setting [9]) turned out to be 9.01 ± 7.03 ng·h/mL; in data set [3] (setting [11]), 8.12 ± 4.13 ng·h/mL; in [3] (setting [13]), 41.5 ± 15.7 ng·h/mL. The AUC(0-inf) in data set [3] (setting [10]) turned out to be 14.2 ± 8.39 ng·h/mL; in [3] (setting [12]) it was 13.9 ± 5.43 ng·h/mL; in [3] (PO 10 mg kg−1, read-out: AUC 24 h−∞), 55.7 ± 24.3 ng·h/mL. Besides, the bioavailability was found to be 44.4 ± 34.6% in [3] (IP 5 mg kg−1, read-out: F) and 94.3 ± 46.9% in [3] (setting [14]). Moreover, the clearance in [3] (IV 2 mg kg−1) is 2650 mL/min/kg. For the same compound, the “expression of GRP75 in xenograft tumors with ISK cells (ELISA)” value in data set [4] (5 mg kg−1, n = 8) was “reduced”. Further, the “effects on GRP75-knockdown ISK tumor versus vehicle group” value in [4] (GRP75-deficient ISK cells in nude mice, 5 mg kg−1 i.p. daily, n = 6) is “not significantly different”. Further, the “anticancer effect in vivo on addition of the AMPK inhibitor compound C” value in data set [4] (JX57 5 mg kg−1 plus compound C 0.2 mg kg−1, n = 6) is “partially abolished”. Besides, in the data set with EC cells (ISK) (EC cells (ISK), 10 µmol L−1), the “ER–mitochondrial distance (TEM)” value is on record as “significantly expanded”. Further, the “[Ca2+]m levels” value in the data set with EC cells (ISK) (EC cells, 10 µmol L−1, confocal Rhod-2/Mito-Tracker) was “decreased”. In addition, the “cellular ATP levels” value in the data set on ISK and KLE cells [5] was “reduced”. For the same compound, the “α‐ketoglutarate activity” value in the data set with ISK and KLE cells [5] is listed as “reduced”. The “glycolysis rate and glycolytic capacity (ECAR)” value with ISK and KLE cells [6] is “markedly reduced”. For the same compound, the “p‐AMPK expression and BIM expression” value in data set [7] was “increased”. Besides, in data set [8], the extrapyramidal side effects result is “minor”.
For `Clc1ccc2c(c1)N(CCCCCN1CCC3(CCCCC3)CC1)c1ncccc1S2` [JX66], the IC50 in data set [1] amounted to 6.39 ± 0.87 µM. In addition, the Cmax in data set [3] (IP 5 mg kg−1) worked out at 10 ± 1.49 ng/mL; in data set [3] (PO 10 mg kg−1) it was 3.8 ± 1.29 ng/mL. Also, the Tmax in data set [3] (IP 5 mg kg−1) turned out to be 1.67 ± 0.57 h; in [3] (PO 10 mg kg−1), 5.5 ± 4.33 h. In addition, the figures for the half-life in data set [3] (IP 5 mg kg−1) and in data set [3] (IV 2 mg kg−1) were 606 ± 82.8 min and 306 ± 101 min, respectively. In addition, the AUC(0-t) in data set [3] (setting [9]) was found to be 140 ± 35.3 ng·h/mL; in data set [3] (setting [11]) it was 144 ± 75.9 ng·h/mL; in data set [3] (setting [13]) it was 16 ± 2.65 ng·h/mL. Further, the AUC(0-inf) worked out at 170 ± 37.4 ng·h/mL in data set [3] (setting [10]) and 153 ± 75.9 ng·h/mL in [3] (setting [12]). Also, the bioavailability in data set [3] (IP 5 mg kg−1, read-out: F) came out at 42.5 ± 13%; in data set [3] (setting [14]) it was 2.23 ± 0.37%. Further, the clearance in [3] (IV 2 mg kg−1) is 265 mL/min/kg. In addition, on GRP75, the Kd is 37.6 µM. In addition, the water solubility entry in “water solubility” is “poor”. The extrapyramidal side effects result in [8] is recorded as “minor”.
